Test results published in patent US20070093539A1, “N-hydroxy-4-(3-pheyl-5-methyl-isoxazole-4-yl)-benzenesulfonate solvates” (priority 2003, published 2007).

Legend:
[1] = tested on: inflammatory mechanical allodynia induced by carrageenan; test: Carrageenan-induced inflammatory mechanical allodynia (von Frey); format: in vivo, male Sprague-Dawley rats; settings: 30 mg/kg p.o.
Description: The-threshold of pain of the animals was measured by von Frey apparatus (IITC, type: 1601 C). […] The values were registered in the times of the pick up or raises. During each measurment the threshold was determined at least thrice and the avarage was calculated from the peak values.
Male Sprague-Dawley rats (weighing 250-300 g) were used (n=5-6/group). 100 μl of saline solution of carrageenant (CA) was injected to the middle of the paw. The stimulus threshold was measured after it, and the treatment was completed with gastro-probe per os. The effects of the materials were measured in 30, 60, 90, 120 minutes after the treatments. The effects were compared for control group treatment with vehicle (solution of 2% Tween-80).
The effect was calculated as follows: [formula] where tx=30, 60, 90, 120 min
In the acute pain model the analgesic effects of the valdecoxib and compound of example 1 were considerable with dose of 30 mg/kg p.o. once.

[2] = tested on: carrageenan-induced foot paw edema; test: Carrageenan-induced rat foot paw edema assay; format: in vivo, male Wistar rats; settings: for ED30 of edema inhibition: p.o.
Description: The edema was induced in male Wistar rats (140-150 g) by subcutaneous injection of carrageenan (50 μl of 1% suspension) into the right hind paw. The formed inflammation was measured with plethysmometer (Ugo Basile, type: 7150). The treated paw was placed into the plethysmometer (filled with 0.3% additives in 0.5% saline), the level of the inflammation was detected by the volume of the displaced solution. This volume was compared with the initial preinjection paw volume. Level of the inflammation (ml)=volume after CA treatment (ml)−volume before CA treatment (ml) The inflammation induced in treated group was compared to control group (which was given only vehicle). The sample materials and the solvent were dosed per os via gastro-sonde 1 hour before the CA treatment. The volume of the treated limb was measured at 3h and 5h after CA treatments. The change of the inflammation level was calculated as follows: [formula]

[3] = tested on: carrageenan and kaolin induced monoarthritis; test: Carrageenan and kaolin induced monoarthritis model (incapacitance test); format: in vivo, rats; settings: 10 mg/kg p.o.
Description: The Incapacitance tester is an apparatus for measure the changes of the functional parameters induced of the pain, which can register the bearing on the hind limb, the amount of the moving and the changing of the centre of gravity. Knee-joint of the right-back limb was treated with solution of 100 μl 2% carrageenan and kaolin. During 3-4 hours after the treatment arthritis was emerged in the capsular ligament of the treated limb. This inflammation still exists at 24 hours after the treatment. Because of the pain the animals coddles the treated limbs, thy weign on it less. Change of weight load is measurable with Incapacitance tester device in grams. The incapacitance was calculated as follows: [formula] Analgesic-antiinflammantory compounds could increase the stimulus threshold of the knee-joint, and consequently to improve the functional parameters of the limb. Measure of this can be counted by the decrease of the loading of left leg i.e. in terms of percentage of reversal. [formula] The Incapacitance induced by administration of irritants in left paw was measured at 4 hour after the injection. Afterwards the animals (n=24-32/group) were. orally treated with dose of 10 mg/kg valdecoxib and test compounds. Measurements were done at 1 and 2 hours after the treatments.

[4] = tested on: carrageenan induced inflammatory hyperalgesia; test: Carrageenan induced inflammatory hyperalgesia (Randall-Selitto), chronic model; format: in vivo, male SPRD rats; settings: 30 mg/kg p.o.
Description: Edema was induced by injection of Carrageenan (CA) into plantar surface of right hind paw. Male SPRD rats (weighing 140-190 g) were used n=6-8/group). Then the mechanical pain threshold of the inflamed hind paw was determined with an analgesimeter ((Ugo Basile, type: 37215).
This assay monitors the decrease of the pain threshold, and the time depending changing of the pain by mechanical pain stimulus. Analgesics can increase the pain threshold of the inflamed hinds and this effect is in terms of percentage of reversal.
Untreated right hind paw was compressed with a progressively increasing pressure. The pressure was recorded (in grams) when the animal first vocalized or made a vigorous attempt to remove the paw. It was determined to baseline threshold of the untreated paw. (average: 80-110 g). After it the animals were treated with carrageenan. After the treatment the edema and the threshold were checked in a given times. […] (Average of inflammation induced pain threshold was 20-25 g, this means 65-80% decrease related to the baseline.)
The chronic phase of the inflammantion and the decreasing of the threshold were induced by higher dose of CA. Inflammation induced threshold decreasing was measured 24 hours after the CA injection (150 μl of 2% solution). ) After it the animals were treated with test compounds and valdecoxib (30-30 mg/kg p.o.). Change in the threshold was checked at 1 h, 2 h, and 3 h following drug administration. In both model used control groups were treated orally only with solvents at the time of treatments. In both protocol the effects of the test compounds were calculated in percentage reversal of mechanical hiperalgesia: [formula] • T3h: In acute model, the threshold in the control group at 3 h after the CA injection (in gram) • T24h: In chronic model, the threshold in the control group at 24 h after the CA injection (in gram) • T0h: The threshold before the CA injection (in gram) • TXh In acute model, at 3h after the CA injection • TXh=In chronic model, at 25 h, 26 h, 27 h after the CA injection

## N-hydroxi-4-(3-phenyl-5-methyl-isoxazole-4-yl)-benzenesulfonamide monohydrate [example 1]
[1]; 30 min.
  Analgesic effect in % after p.o. treatment: 61.6%
[1]; 1 hour
  Analgesic effect in % after p.o. treatment: 57.1%
[1]; 1.5 hour
  Analgesic effect in % after p.o. treatment: 44.5%
[1]; 2 hours
  Analgesic effect in % after p.o. treatment: 41.5%
[2]; 0.3 mg/kg p.o., 4 hours after treatment
  edema inhibition effect %: 19.5%
[2]; 0.3 mg/kg p.o., 6 hours after treatment
  edema inhibition effect %: 17.5%
[2]; 1.0 mg/kg p.o., 4 hours after treatment
  edema inhibition effect %: 25.2%
[2]; 1.0 mg/kg p.o., 6 hours after treatment
  edema inhibition effect %: 37.2%
[2]; 3.0 mg/kg p.o., 4 hours after treatment
  edema inhibition effect %: 33.9%
[2]; 3.0 mg/kg p.o., 6 hours after treatment
  edema inhibition effect %: 40.4%
[2]; 10.0 mg/kg p.o., 4 hours after treatment
  edema inhibition effect %: 40.7%
[2]; 10.0 mg/kg p.o., 6 hours after treatment
  edema inhibition effect %: 59.2%
[2]; 4 hours after treatment
  ED30 of edema inhibition: 1.8 mg/kg
[2]; 6 hours after treatment
  ED30 of edema inhibition: 0.8 mg/kg
[3]; 1 hour
  Analgesic effect (% reversal) after p.o. treatment: 63.2 % reversal
[3]; 2 hours
  Analgesic effect (% reversal) after p.o. treatment: 76.9 % reversal
[4]; 1 hour
  Analgesic effect in % after p.o. treatment: 57.8%
[4]; 2 hours
  Analgesic effect in % after p.o. treatment: 63.9%
[4]; 3 hours
  Analgesic effect in % after p.o. treatment: 42.0%
